Source: patent US20260285888A1, “HETEROCYCLIC COMPOUND AND USE THEREOF” (OTSUKA PHARMACEUTICAL CO., LTD., priority 2023, published 2026)

Assays:
[1] = Study for confirmation of conversion to brexpiprazole in a buffer (stability of the evaluation compounds); format: physicochemical; conditions: in buffer, average of duplicate; for Concentration of brexpiprazole formed: 60-minute reaction sample; for Concentration of evaluation compound decreased: decrease in 60-minute vs 0-minute reaction sample
Method in brief: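 Compounds (final 1 μmol/L, from 100 μmol/L working solutions) incubated in buffer at 37° C. for 0 or 60 min, in duplicate, after 3 min pre-incubation of the reaction solution. Reactions stopped with acetonitrile/isopropanol (4:1) containing internal standards; compound and formed brexpiprazole quantified against 0.01–1 μmol/L calibration samples.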

in vitro = format: cell-based, human; conditions: human, differentiated hl-60 cells, 300 μmol/L, about 24 hours, PMA-differentiated HL-60 cells, LDH; no-treatment 0%, cell lysis buffer 100%; read-out: cytotoxicity (%) Evaluation compound results
Description: An HL-60 cell line (human acute promyelocytic leukemia cells) was successively cultured in RPMI 1640 containing 20% fetal bovine serum (FBS) at 37° C. in 95% atmosphere/5% CO2. Before evaluation, the cells were pre-cultured for about 72 hours in the presence of 10 nM phorbol 12-myristate 13-acetate (PMA) to induce macrophage-like differentiation.
Evaluation compounds were dissolved in DMSO to obtain 30 mmol/L solutions (or suspensions). Each DMSO solution was diluted 100-fold with RPMI 1640 containing 2% FBS (final concentration of the compound: 300 μmol/L) to obtain a treatment solution. The culture supernatant of the differentiated HL-60 cells was removed, and each treatment solution was added and cultured for about 24 hours, followed by cytotoxicity evaluation.
The activity of lactate dehydrogenase (LDH) was measured in the treatment solutions exposed to the cells for about 24 hours by using a commercial kit (Cytotoxicity LDH Assay Kit-WST, Dojindo Laboratories) and a plate reader (Tecan Infinite M1000). The obtained measurement values were used to calculate cytotoxicity (%) as comparison values for each evaluation compound-treated group, with the no-treatment group taken as 0% and the cell lysis buffer-treated group taken as 100%. The test was conducted in triplicate in three wells each, and the average values were used as adopted values.

Compound	Concentration of brexpiprazole formed [1] [nM]	Concentration of evaluation compound decreased [1] [nM]	cytotoxicity at 24 h, 300 µM (in vitro) [%]
CCOCCC(=O)OCOP(=O)([O-])OC[N+]1(CCCCOc2ccc3ccc(=O)[nH]c3c2)CCN(c2cccc3sccc23)CC1 [EX 29, (4-(benzo[b]thiophen-4-yl)-1-(4-((2-oxo-1,2-dihydroquinolin-7-yl)oxy)butyl)piperazin-1-ium-1-yl)methyl (((3-ethoxypropanoyl)oxy)methyl) phosphate]	0	-10	-4
COCCOC(=O)CCCCCCCCCCC(=O)OCOP(=O)([O-])OC[N+]1(CCCCOc2ccc3ccc(=O)[nH]c3c2)CCN(c2cccc3sccc23)CC1 [EX 77, (4-(benzo[b]thiophen-4-yl)-1-(4-((2-oxo-1,2-dihydroquinolin-7-yl)oxy)butyl)piperazin-1-ium-1-yl)methyl (((12-(2-methoxyethoxy)-12-oxododecanoyl)oxy)methyl) phosphate]	0	110	6
CC(C)COCCOP(=O)([O-])OC[N+]1(CCCCOc2ccc3ccc(=O)[nH]c3c2)CCN(c2cccc3sccc23)CC1 [EX 51, (4-(benzo[b]thiophen-4-yl)-1-(4-((2-oxo-1,2-dihydroquinolin-7-yl)oxy)butyl)piperazin-1-ium-1-yl)methyl (2-isobutoxyethyl) phosphate]	0	50	-9
CCOC(=O)CNP(=O)([O-])OC[N+]1(CCCCOc2ccc3ccc(=O)[nH]c3c2)CCN(c2cccc3sccc23)CC1 [EX 154, (4-(benzo[b]thiophen-4-yl)-1-(4-((2-oxo-1,2-dihydroquinolin-7-yl)oxy)butyl)piperazin-1-ium-1-yl)methyl (2-ethoxy-2-oxoethyl)phosphoramidate]	0	20	4
CCCCOCCOP(=O)([O-])OC[N+]1(CCCCOc2ccc3ccc(=O)[nH]c3c2)CCN(c2cccc3sccc23)CC1 [EX 96, (4-(benzo[b]thiophen-4-yl)-1-(4-((2-oxo-1,2-dihydroquinolin-7-yl)oxy)butyl)piperazin-1-ium-1-yl)methyl (2-butoxyethyl) phosphate]	0	30	12
O=C(OCOP(=O)([O-])OC[N+]1(CCCCOc2ccc3ccc(=O)[nH]c3c2)CCN(c2cccc3sccc23)CC1)OCC1CCOCC1 [EX 142, (4-(benzo[b]thiophen-4-yl)-1-(4-((2-oxo-1,2-dihydroquinolin-7-yl)oxy)butyl)piperazin-1-ium-1-yl)methyl (((((tetrahydro-2H-pyran-4-yl)methoxy)carbonyl)oxy)methyl) phosphate]	0	-70	8
CC(=O)Oc1ccccc1C(=O)OCOP(=O)([O-])OC[N+]1(CCCCOc2ccc3ccc(=O)[nH]c3c2)CCN(c2cccc3sccc23)CC1 [EX 80, (2-acetoxybenzoyl)oxy)methyl ((4-(benzo[b]thiophen-4-yl)-1-(4-((2-oxo-1,2-dihydroquinolin-7-yl)oxy)butyl)piperazin-1-ium-1-yl)methyl) phosphate]	0	170	7
CC1(C)OCC(COP(=O)([O-])OC[N+]2(CCCCOc3ccc4ccc(=O)[nH]c4c3)CCN(c3cccc4sccc34)CC2)CO1 [EX 55, (4-(benzo[b]thiophen-4-yl)-1-(4-((2-oxo-1,2-dihydroquinolin-7-yl)oxy)butyl)piperazin-1-ium-1-yl)methyl ((2,2-dimethyl-1,3-dioxan-5-yl)methyl) phosphate]	0	70	-7
CN1CCN(CCOP(=O)([O-])OC[N+]2(CCCCOc3ccc4ccc(=O)[nH]c4c3)CCN(c3cccc4sccc34)CC2)CC1 [EX 117, (4-(benzo[b]thiophen-4-yl)-1-(4-((2-oxo-1,2-dihydroquinolin-7-yl)oxy)butyl)piperazin-1-ium-1-yl)methyl (2-(4-methylpiperazin-1-yl)ethyl) phosphate]	0	50	-7
CCOC(=O)C(CC)OP(=O)([O-])OC[N+]1(CCCCOc2ccc3ccc(=O)[nH]c3c2)CCN(c2cccc3sccc23)CC1 (stereo not drawn) [EX 110, (4-(benzo[b]thiophen-4-yl)-1-(4-((2-oxo-1,2-dihydroquinolin-7-yl)oxy)butyl)piperazin-1-ium-1-yl)methyl (1-ethoxy-1-oxobutan-2-yl) phosphate]	0	70	-3
COCC1CCC(COP(=O)([O-])OC[N+]2(CCCCOc3ccc4ccc(=O)[nH]c4c3)CCN(c3cccc4sccc34)CC2)CC1 (stereo not drawn) [EX 54, (4-(benzo[b]thiophen-4-yl)-1-(4-((2-oxo-1,2-dihydroquinolin-7-yl)oxy)butyl)piperazin-1-ium-1-yl)methyl ((4-(methoxymethyl)cyclohexyl)methyl) phosphate]	0	140	-10
CCOCCOCCOP(=O)([O-])OC[N+]1(CCCCOc2ccc3ccc(=O)[nH]c3c2)CCN(c2cccc3sccc23)CC1 [EX 98, (4-(benzo[b]thiophen-4-yl)-1-(4-((2-oxo-1,2-dihydroquinolin-7-yl)oxy)butyl)piperazin-1-ium-1-yl)methyl (2-(2-ethoxyethoxy)ethyl) phosphate]	0	-20	-8
O=c1ccc2ccc(OCCCC[N+]3(COP(=O)([O-])OCCCCO)CCN(c4cccc5sccc45)CC3)cc2[nH]1 [EX 10, (4-(benzo[b]thiophen-4-yl)-1-(4-((2-oxo-1,2-dihydroquinolin-7-yl)oxy)butyl)piperazin-1-ium-1-yl)methyl (4-hydroxybutyl) phosphate]	0	-20	-6
CC(C)(C)OC(=O)CNP(=O)([O-])OC[N+]1(CCCCOc2ccc3ccc(=O)[nH]c3c2)CCN(c2cccc3sccc23)CC1 [EX 155, (4-(benzo[b]thiophen-4-yl)-1-(4-((2-oxo-1,2-dihydroquinolin-7-yl)oxy)butyl)piperazin-1-ium-1-yl)methyl (2-(tert-butoxy)-2-oxoethyl)phosphoramidate]	0	160	-3
COCCOC(=O)OCOP(=O)([O-])OC[N+]1(CCCCOc2ccc3ccc(=O)[nH]c3c2)CCN(c2cccc3sccc23)CC1 [EX 33, (4-(benzo[b]thiophen-4-yl)-1-(4-((2-oxo-1,2-dihydroquinolin-7-yl)oxy)butyl)piperazin-1-ium-1-yl)methyl ((((2-methoxyethoxy)carbonyl)oxy)methyl) phosphate]	0	0	-7
COCCOCCOC(=O)OCOP(=O)([O-])OC[N+]1(CCCCOc2ccc3ccc(=O)[nH]c3c2)CCN(c2cccc3sccc23)CC1 [EX 34, (4-(benzo[b]thiophen-4-yl)-1-(4-((2-oxo-1,2-dihydroquinolin-7-yl)oxy)butyl)piperazin-1-ium-1-yl)methyl (3-oxo-2,4,7,10-tetraoxaundecyl) phosphate]	0	10	-10
O=c1ccc2ccc(OCCCC[N+]3(COP(=O)([O-])OCCCCCCCCO)CCN(c4cccc5sccc45)CC3)cc2[nH]1 [EX 11, (4-(benzo[b]thiophen-4-yl)-1-(4-((2-oxo-1,2-dihydroquinolin-7-yl)oxy)butyl)piperazin-1-ium-1-yl)methyl (8-hydroxyoctyl) phosphate]	0	30	16
